The target of experiment [1] is T1, Polyamine deacetylase HDAC10 (Homo sapiens, UniProt Q969S8).
T1 sequence (Q969S8 whole entry): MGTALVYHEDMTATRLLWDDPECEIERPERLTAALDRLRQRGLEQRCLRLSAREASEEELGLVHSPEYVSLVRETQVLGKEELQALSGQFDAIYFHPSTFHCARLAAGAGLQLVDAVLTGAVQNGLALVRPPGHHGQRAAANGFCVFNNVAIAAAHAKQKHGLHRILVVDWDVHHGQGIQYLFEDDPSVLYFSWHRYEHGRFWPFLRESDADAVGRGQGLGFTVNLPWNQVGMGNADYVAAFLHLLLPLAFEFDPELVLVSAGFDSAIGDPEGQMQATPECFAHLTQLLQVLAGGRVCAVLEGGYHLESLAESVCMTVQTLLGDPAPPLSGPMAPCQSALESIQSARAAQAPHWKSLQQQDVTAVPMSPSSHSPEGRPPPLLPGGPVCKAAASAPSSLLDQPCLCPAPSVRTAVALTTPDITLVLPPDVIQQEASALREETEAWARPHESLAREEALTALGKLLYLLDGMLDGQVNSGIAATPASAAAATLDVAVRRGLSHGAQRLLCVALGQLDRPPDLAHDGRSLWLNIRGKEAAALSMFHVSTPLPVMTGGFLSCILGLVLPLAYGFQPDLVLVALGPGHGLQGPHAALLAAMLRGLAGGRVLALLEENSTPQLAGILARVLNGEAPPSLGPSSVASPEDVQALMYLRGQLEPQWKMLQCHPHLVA
Description: Inhibition of HDAC10 (unknown origin)

Another experiment concerns the target Histone deacetylase 9 (Homo sapiens, UniProt Q9UKV0).
Another experiment deals with Histone deacetylase 5 (Homo sapiens, UniProt Q9UQL6).
Sequence of Histone deacetylase 5 (Q9UQL6 whole entry): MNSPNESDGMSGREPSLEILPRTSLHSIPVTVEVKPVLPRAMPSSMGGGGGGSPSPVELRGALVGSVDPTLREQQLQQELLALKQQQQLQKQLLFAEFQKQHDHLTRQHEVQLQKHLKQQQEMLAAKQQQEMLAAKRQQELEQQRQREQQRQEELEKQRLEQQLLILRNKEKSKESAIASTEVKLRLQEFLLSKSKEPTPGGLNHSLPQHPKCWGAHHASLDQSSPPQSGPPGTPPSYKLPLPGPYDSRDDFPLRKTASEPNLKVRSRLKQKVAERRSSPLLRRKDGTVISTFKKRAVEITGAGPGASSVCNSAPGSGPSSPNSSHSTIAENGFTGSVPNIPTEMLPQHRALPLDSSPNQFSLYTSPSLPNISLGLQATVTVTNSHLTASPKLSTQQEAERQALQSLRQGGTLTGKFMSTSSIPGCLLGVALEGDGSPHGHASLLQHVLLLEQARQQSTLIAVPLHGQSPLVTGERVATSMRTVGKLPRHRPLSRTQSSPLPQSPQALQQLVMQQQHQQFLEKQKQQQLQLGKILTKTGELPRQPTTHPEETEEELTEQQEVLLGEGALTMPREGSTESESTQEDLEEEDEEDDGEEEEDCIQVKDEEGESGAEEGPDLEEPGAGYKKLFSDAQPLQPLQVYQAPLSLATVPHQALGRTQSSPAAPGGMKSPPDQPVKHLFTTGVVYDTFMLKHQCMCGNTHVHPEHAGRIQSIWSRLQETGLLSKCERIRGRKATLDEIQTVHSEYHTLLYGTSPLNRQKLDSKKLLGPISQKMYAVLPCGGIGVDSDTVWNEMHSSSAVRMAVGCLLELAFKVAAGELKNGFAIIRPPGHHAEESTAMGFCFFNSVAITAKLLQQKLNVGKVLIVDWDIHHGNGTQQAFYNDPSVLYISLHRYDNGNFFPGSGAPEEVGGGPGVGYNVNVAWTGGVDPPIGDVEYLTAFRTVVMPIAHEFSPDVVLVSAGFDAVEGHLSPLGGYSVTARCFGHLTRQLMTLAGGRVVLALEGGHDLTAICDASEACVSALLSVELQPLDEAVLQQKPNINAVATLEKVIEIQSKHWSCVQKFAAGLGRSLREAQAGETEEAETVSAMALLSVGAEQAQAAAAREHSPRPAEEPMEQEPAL

What is called IC50 is the concentration at which inhibition is half-maximal. The low end stands for greater potency in that assay, the high end for weaker potency in that assay.

Sequence of Histone deacetylase 9 (Q9UKV0 whole entry): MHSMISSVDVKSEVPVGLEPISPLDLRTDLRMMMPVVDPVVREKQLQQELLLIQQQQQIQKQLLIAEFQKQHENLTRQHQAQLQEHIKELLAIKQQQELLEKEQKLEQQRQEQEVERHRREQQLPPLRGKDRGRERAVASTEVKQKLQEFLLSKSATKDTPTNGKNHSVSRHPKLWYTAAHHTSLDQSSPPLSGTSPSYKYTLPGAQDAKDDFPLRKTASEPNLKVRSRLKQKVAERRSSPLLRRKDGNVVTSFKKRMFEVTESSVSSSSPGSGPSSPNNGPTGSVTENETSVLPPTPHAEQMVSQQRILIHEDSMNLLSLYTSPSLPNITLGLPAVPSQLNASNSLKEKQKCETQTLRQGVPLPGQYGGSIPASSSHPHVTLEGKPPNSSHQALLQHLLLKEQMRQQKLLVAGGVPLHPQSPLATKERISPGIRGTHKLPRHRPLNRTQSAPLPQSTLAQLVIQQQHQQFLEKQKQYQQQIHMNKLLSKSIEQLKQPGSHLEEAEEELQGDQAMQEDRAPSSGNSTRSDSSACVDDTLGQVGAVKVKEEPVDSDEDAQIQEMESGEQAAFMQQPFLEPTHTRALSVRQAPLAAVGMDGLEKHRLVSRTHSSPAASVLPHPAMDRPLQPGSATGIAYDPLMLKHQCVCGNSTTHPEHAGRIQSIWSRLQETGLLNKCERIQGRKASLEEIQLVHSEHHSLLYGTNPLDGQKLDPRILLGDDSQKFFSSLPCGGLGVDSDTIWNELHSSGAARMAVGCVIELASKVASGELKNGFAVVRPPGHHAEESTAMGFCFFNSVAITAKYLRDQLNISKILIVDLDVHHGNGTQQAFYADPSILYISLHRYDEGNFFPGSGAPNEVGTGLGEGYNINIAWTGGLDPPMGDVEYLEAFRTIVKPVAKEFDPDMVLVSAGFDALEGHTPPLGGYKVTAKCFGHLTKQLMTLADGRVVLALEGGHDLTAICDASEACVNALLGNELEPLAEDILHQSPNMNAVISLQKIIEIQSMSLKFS
Description for Histone deacetylase 5: Inhibition of HDAC5 (unknown origin)
Description for Histone deacetylase 9: Inhibition of HDAC9 (unknown origin)

On to `Cn1cc(-c2ccc(S(=O)(=O)n3ccc(/C=C/C(=O)Nc4ccccc4N)c3)cc2)cn1` [DOMATINOSTAT], for which the IC50 in experiment [1] turned out to be 21 µM; on Histone deacetylase 9, 50 µM.
Take `Cn1cc(CNCC2CCN(c3ncc(C(=O)NO)cn3)CC2)c2ccccc21` [QUISINOSTAT]: the figures for the IC50 (in experiment [1]; against Histone deacetylase 5) were 0.00046 µM and 0.00369 µM, respectively.

(Values after ChEMBL document CHEMBL5096165, “Histone deacetylase 2: A potential therapeutic target for cancer and neurodegenerative disorders” (Eur J Med Chem, 2021).)
